As a reminder, the IC50 is the concentration that inhibits the measured activity by half.

Data on six compounds can be found in ChEMBL document CHEMBL4665902, “Novel Heteroaryl Compounds for Treating Huntington's Disease” (ACS Med Chem Lett, 2020).

Huntingtin, sequence (P42858 whole entry): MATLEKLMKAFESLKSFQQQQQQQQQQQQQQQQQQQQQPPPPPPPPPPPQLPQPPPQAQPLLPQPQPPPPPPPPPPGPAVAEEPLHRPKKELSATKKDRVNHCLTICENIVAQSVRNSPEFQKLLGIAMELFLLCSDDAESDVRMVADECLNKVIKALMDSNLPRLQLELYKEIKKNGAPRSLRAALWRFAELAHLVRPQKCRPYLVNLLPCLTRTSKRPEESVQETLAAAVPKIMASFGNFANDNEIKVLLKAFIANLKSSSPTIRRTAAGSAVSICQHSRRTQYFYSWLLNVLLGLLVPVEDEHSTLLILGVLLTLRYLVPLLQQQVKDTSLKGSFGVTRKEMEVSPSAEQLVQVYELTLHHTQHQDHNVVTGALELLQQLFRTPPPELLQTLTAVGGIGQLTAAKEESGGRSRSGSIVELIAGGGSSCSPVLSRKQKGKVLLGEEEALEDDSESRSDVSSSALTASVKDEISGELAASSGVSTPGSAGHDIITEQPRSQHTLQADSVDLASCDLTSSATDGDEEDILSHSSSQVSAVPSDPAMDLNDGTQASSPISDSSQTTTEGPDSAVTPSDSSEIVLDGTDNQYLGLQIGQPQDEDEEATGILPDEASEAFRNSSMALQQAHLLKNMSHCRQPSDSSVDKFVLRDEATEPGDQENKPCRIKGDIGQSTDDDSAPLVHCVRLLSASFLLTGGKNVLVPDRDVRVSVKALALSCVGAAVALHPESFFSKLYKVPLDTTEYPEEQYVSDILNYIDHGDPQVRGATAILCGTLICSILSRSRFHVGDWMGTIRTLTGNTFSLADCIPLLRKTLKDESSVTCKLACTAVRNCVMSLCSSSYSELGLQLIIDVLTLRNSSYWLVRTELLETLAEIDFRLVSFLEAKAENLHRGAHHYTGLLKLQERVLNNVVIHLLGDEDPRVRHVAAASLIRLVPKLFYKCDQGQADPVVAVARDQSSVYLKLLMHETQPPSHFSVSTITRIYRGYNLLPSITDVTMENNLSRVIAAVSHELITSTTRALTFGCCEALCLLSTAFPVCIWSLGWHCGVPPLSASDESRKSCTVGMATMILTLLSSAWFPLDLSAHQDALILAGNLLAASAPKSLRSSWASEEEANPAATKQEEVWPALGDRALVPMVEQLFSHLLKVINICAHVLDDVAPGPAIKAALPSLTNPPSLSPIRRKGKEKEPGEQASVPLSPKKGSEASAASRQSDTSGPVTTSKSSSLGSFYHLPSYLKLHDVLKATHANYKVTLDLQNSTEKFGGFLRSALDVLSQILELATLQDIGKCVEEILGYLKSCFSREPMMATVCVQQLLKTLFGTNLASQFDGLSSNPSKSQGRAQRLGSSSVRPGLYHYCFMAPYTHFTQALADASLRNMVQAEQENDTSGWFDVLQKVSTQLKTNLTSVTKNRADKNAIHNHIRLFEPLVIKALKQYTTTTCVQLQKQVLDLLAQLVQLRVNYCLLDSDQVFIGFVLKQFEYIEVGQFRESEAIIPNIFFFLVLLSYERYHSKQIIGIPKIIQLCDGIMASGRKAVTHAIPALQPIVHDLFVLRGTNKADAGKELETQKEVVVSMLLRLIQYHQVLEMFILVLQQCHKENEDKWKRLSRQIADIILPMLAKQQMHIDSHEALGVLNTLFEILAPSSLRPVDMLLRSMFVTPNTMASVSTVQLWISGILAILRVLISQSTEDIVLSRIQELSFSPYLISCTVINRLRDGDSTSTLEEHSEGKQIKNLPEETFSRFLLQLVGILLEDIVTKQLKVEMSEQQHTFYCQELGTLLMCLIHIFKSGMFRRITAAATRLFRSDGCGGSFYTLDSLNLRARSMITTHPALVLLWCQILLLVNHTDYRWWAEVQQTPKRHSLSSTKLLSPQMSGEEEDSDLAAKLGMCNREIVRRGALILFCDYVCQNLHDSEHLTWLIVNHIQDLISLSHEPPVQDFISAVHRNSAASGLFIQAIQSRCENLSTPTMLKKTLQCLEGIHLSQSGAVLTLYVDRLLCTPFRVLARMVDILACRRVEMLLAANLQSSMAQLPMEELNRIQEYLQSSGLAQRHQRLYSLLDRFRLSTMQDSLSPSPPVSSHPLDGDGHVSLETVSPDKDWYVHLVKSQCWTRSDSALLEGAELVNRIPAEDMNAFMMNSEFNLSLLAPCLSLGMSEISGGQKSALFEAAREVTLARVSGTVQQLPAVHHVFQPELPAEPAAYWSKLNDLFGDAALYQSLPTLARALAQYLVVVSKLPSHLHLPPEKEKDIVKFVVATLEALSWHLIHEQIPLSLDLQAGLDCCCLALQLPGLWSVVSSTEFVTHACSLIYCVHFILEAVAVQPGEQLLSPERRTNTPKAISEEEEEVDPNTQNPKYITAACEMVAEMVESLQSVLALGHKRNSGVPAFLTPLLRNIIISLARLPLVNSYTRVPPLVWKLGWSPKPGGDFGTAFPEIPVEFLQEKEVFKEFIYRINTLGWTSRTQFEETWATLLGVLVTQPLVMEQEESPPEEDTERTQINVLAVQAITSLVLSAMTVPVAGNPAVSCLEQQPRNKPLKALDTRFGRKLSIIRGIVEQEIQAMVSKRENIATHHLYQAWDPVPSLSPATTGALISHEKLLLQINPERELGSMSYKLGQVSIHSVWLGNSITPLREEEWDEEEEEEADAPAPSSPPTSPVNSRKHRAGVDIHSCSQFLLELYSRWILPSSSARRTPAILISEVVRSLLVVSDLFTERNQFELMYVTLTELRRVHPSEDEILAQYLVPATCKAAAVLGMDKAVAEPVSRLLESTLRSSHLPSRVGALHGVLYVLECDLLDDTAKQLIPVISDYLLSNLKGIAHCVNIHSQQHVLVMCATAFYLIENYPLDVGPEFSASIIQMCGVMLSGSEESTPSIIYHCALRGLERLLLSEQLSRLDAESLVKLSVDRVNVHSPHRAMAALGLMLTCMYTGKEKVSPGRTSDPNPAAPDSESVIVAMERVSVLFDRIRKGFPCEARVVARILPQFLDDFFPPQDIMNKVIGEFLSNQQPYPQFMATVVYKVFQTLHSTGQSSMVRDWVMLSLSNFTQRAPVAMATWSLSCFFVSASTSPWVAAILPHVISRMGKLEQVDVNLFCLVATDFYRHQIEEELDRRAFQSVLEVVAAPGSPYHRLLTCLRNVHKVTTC

This assay has as its target Huntingtin (Homo sapiens, UniProt P42858). The assay can be described thus: Inhibition of Huntingtin protein (unknown origin) incubated for overnight in presence of MW1/MAB2166 monoclonal antibody by MSD assay.
Regarding `Cn1cc2cc(-c3nn4cc(C5CCNCC5)nc4s3)cc(C#N)c2n1`, the half-inhibitory concentration (IC50) was not above 0.1 µM.
Turning to `CN(c1nc2sc(-c3ncc(-c4cn[nH]c4)nn3)nc2s1)C1CC(C)(C)NC(C)(C)C1`, the IC50 was not above 0.1 µM.
As to `CN(c1nc2sc(-c3cnc(-c4cn[nH]c4)c4[nH]ccc34)nc2s1)C1CCNCC1`, the 50% inhibitory concentration (IC50) is not above 0.1 µM.
Consider `Cc1cn2nc(-c3cn4cc(C5CCNCC5)nc4s3)cc(C)c2n1`, for which the IC50 was not above 0.1 µM.
As for `CN(c1nc2sc(-c3ncc(-c4cn[nH]c4)cc3O)nc2s1)C1CC(C)(C)NC(C)(C)C1`, the figure is not above 0.1 µM; as for `C[C@H]1C[C@H](Oc2nc3sc(-c4ncc(-c5nnn(C)n5)c5cc[nH]c45)nc3s2)CCN1`, not above 0.1 µM.
